PMC12155096 (International Journal of Molecular Sciences, 2025)
Counter-ions that a name gives are not always drawn. Like-named read-outs stand apart in the source and are kept apart here.

Tests used:
[1] = target: Photinus pyralis (firefly) luciferase (Photinus pyralis, UniProt P08659); assay: biochemical; format: biochemical
[2] = target: T1, human CYP1A2 (Homo sapiens, UniProt P05177)
T1 sequence (P05177 1-516): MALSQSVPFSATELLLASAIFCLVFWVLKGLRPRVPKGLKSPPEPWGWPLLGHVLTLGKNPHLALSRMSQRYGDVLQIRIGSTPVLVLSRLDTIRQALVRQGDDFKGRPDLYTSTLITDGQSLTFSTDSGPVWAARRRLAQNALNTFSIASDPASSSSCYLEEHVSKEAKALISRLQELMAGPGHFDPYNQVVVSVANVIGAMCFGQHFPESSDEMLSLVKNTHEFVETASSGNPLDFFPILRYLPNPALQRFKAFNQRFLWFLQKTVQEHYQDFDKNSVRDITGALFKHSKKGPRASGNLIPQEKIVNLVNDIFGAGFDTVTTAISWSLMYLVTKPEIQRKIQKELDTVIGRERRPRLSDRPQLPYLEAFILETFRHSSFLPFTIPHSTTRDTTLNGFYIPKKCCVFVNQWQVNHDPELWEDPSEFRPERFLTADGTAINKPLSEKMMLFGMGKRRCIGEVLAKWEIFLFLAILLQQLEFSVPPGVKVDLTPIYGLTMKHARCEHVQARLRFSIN

[3] = target: CYP3A4 (Homo sapiens, UniProt P08684)
[4] = target: T2, human CYP2C9 (Homo sapiens, UniProt P11712); assay: biochemical
[5] = target: T3, human CYP2C19 (Homo sapiens, UniProt P33261); assay: biochemical
[6] = target: T4, human CYP2D6 (Homo sapiens, UniProt P10635); assay: biochemical
[7] = target: T2, human CYP2C9
[8] = target: T3, human CYP2C19
[9] = target: T1, human CYP1A2; assay: biochemical
[10] = target: T4, human CYP2D6; settings: human
[11] = CYP2C19 IC50 (half-maximal inhibitory concentration)
[12] = CYP2D6 IC50 (half-maximal inhibitory concentration)

Photinus pyralis (firefly) luciferase, sequence (P08659 whole entry): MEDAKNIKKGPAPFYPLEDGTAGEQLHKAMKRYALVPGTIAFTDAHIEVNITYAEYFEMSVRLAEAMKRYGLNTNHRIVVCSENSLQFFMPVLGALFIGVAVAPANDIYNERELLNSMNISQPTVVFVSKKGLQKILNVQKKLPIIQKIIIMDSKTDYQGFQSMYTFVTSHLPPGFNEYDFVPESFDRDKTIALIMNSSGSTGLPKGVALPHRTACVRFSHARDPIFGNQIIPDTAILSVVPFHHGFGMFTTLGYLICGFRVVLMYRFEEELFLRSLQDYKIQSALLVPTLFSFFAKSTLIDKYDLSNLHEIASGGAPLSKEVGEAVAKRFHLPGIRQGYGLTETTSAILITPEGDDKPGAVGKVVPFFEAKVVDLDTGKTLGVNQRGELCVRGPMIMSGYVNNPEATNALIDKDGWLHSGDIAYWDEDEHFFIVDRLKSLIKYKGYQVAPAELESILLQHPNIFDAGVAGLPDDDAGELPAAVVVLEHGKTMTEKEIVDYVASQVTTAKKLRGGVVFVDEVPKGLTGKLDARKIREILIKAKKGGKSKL
CYP3A4, sequence (P08684 whole entry): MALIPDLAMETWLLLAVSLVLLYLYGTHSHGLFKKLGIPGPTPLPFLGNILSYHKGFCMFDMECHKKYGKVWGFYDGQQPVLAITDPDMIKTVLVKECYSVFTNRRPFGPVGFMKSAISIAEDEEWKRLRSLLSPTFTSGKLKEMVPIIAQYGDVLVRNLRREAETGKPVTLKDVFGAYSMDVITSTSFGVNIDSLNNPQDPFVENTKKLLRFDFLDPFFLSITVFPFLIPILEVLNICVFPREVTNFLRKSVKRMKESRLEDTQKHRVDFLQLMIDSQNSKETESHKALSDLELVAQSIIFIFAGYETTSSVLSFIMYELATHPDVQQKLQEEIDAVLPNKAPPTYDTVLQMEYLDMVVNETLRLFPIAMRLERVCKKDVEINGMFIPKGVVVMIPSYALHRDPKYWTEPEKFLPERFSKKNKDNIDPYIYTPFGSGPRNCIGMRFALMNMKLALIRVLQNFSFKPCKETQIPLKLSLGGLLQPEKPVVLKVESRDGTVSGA
T3 sequence (P33261 whole entry): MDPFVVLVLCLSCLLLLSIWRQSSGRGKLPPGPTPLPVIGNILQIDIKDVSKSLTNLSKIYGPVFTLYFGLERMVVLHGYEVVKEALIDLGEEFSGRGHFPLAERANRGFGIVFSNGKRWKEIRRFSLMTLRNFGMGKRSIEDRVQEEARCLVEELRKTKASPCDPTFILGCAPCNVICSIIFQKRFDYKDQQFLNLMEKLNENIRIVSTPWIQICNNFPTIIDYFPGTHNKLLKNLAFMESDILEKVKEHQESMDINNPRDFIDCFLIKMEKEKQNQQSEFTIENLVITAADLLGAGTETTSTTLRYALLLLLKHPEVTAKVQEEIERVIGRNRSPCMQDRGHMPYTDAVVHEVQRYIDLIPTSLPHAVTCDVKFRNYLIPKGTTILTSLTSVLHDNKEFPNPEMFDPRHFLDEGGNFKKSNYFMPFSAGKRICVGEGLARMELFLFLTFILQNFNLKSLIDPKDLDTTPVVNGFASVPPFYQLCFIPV
T4 sequence (P10635 whole entry): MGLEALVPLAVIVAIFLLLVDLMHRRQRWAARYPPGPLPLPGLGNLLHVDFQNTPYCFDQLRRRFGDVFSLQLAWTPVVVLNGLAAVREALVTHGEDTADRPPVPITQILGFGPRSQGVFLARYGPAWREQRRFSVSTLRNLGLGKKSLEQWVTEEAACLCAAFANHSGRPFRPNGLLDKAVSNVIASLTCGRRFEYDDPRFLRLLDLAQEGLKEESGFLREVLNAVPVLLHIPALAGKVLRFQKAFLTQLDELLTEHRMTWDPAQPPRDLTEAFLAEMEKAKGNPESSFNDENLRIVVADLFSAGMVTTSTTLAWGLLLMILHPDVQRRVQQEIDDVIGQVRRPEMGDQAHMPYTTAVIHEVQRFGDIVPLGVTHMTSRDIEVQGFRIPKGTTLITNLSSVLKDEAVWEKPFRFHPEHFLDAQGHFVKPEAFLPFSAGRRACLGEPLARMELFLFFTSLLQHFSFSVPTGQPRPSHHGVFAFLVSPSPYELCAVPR
T2 sequence (P11712 whole entry): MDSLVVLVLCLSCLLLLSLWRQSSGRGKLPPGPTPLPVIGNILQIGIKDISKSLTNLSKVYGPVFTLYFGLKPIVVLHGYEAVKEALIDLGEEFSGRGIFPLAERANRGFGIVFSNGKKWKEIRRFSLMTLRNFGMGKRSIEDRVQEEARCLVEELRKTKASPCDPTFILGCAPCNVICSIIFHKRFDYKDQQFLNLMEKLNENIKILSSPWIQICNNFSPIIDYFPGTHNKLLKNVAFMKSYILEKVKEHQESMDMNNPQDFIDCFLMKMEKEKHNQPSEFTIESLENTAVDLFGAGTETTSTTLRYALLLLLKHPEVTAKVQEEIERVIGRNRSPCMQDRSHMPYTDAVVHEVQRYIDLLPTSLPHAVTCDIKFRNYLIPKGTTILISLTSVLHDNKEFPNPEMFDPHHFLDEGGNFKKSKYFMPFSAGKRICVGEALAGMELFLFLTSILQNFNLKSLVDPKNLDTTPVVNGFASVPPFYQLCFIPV

Row | SMILES | Luciferase IC50 (half-maximal inhibitory concentration) [1] | CYP1A2 IC50 (half-maximal inhibitory concentration) [2] | CYP3A4 IC50 (half-maximal inhibitory concentration) [3] | IC50 [6] | Luciferase IC50 [1] | CYP1A2 IC50 [2] | CYP2C9 IC50 [7] | CYP3A4 IC50 [3] | IC50 ([6]; CYP2D6 IC50) | other results
1 | COC(=O)C1=C(C)NC(C)=C(C(=O)OCCN2CCN(C(c3ccccc3)c3ccccc3)CC2)C1c1cccc([N+](=O)[O-])c1 (centres unmarked) [Manidipine] | Inactive | Inactive | Inactive | 6.17 ± 5.32 µM |  |  |  |  |  | IC50 [4]: 0.52 ± 0.3 µM; IC50 [5]: 2.39 ± 2.01 µM
2 | OC(CCCN1CCCCC1)(c1ccccc1)c1ccccc1 [Diphenidol] | Inactive | Inactive | Inactive |  |  |  |  |  |  | CYP2C9 IC50 (half-maximal inhibitory concentration) [7]: Inactive; IC50 [5, 11]: 32.7 µM; IC50 [6, 12]: 0.09 µM
3 | CN1CCC(N(Cc2ccccc2)c2ccccc2)CC1 [Bamipine] |  |  |  | 0.38 µM | Inactive | Inactive | Inactive | Inactive |  | IC50 [5]: 36.8 µM
4 | O=C(CCCN1CCC2(CC1)C(=O)NCN2c1ccccc1)c1ccc(F)cc1 [Spiperone] |  |  |  |  | Inactive | Inactive | Inactive | Inactive |  | CYP2C19 IC50 [8]: Inactive; IC50 ([6]; CYP2D6 IC50, mean ± standard deviation from three experiments): 0.79 ± 0.18 µM
5 | CN1CCCCC1CCN1c2ccccc2Sc2ccc([S+](C)[O-])cc21 (centres unmarked) [Mesoridazine] | Inactive | Inactive | Inactive |  |  |  |  |  |  | CYP2C9 IC50 (half-maximal inhibitory concentration) [7]: Inactive; CYP2C19 IC50 (half-maximal inhibitory concentration) [8]: Inactive; IC50 [6, 12]: 0.09 µM
6 | CO[C@]12C[C@@H](COC(=O)c3cncc(Br)c3)CN(C)[C@@H]1Cc1cn(C)c3cccc2c13 [Nicergoline] |  |  |  |  | Inactive |  | Inactive |  | 0.07 µM | IC50 ([9]; CYP1A2 IC50): 22 µM; IC50 ([5]; CYP2C19 IC50): 11.8 µM
7 | CN1CCCC(CC2c3ccccc3Sc3ccccc32)C1 (centres unmarked) [Metixene hydrochloride] | Inactive | Inactive | Inactive |  |  |  |  |  |  | CYP2C9 IC50 (half-maximal inhibitory concentration) [7]: Inactive; IC50 [5, 11]: 7.76 µM; IC50 [6, 12]: 0.44 µM
8 | COC1CC(=C(c2cccs2)c2cccs2)C[N+](C)(C)C1 (centres unmarked) [Timepidium bromide] |  |  |  |  | Inactive | Inactive | Inactive | Inactive | 0.29 µM | CYP2C19 IC50 [8]: Inactive
9 | C1CCC(NC2CCCCC2)CC1 [Dicyclohexylamine] |  |  |  | 0.28 µM | Inactive | Inactive | Inactive | Inactive |  | CYP2C19 IC50 [8]: Inactive
10 | CCOC(=O)COc1ccc2c(c1)C[C@@H](NC[C@H](O)c1cccc(Cl)c1)CC2 [SR58611] | Inactive | Inactive | Inactive | 0.66 ± 0.18 µM |  |  |  |  |  | IC50 [4]: 31 ± 4.26 µM; IC50 [5]: 35.2 ± 8.79 µM
11 | CCc1cccc(N(C)C(N)=Nc2cccc3ccccc23)c1 [Aptiganel hydrochloride] |  |  |  |  | Inactive | Inactive |  | Inactive | 0.14 µM | 
12 | CC(Cc1ccccc1)N(C)Cc1ccco1 (centres unmarked) [Furfenorex] |  |  |  |  | Inactive | Inactive | Inactive | Inactive | 0.85 µM | IC50 ([5]; CYP2C19 IC50): 6.65 µM
13 | O=[N+]([O-])c1c2ccccc2cc2ccccc12 [9-Nitroanthracene] |  |  |  |  |  |  |  |  |  | IC50 [1]: 22.6 µM; CYP1A2 Efficacy (in parenthesis) ([2]; human): 0.27 ± 0.04 (-96 ± 5) %; CYP2C9 Efficacy (in parenthesis) ([7]; human): 13.51 ± 1.21 (-86 ± 11) %; CYP2C19 Efficacy (in parenthesis) ([8]; human): 19.86 ± 2.28 (-116 ± 4) %; CYP2D6 Efficacy (in parenthesis) [10]: 34.03 ± 2.33 (-39 ± 13) %; IC50 ([9]; CYP1A2 IC50 (half-maximal inhibitory concentration)): 0.27 µM; IC50 ([4]; CYP2C9 IC50 (half-maximal inhibitory concentration)): 13.5 µM; IC50 [5, 11]: 19.9 µM; IC50 [6, 12]: 34 µM
14 | NC(=O)C(c1ccccc1)(c1ccccc1)[C@@H]1CCN(CCc2ccc3c(c2)CCO3)C1 [Darifenacin hydrobromide] | Inactive | Inactive | Inactive |  |  |  |  |  |  | CYP2C9 IC50 (half-maximal inhibitory concentration) [7]: Inactive; CYP2C19 IC50 (half-maximal inhibitory concentration) [8]: Inactive; CYP2D6 Efficacy (in parenthesis) [10]: 0.41 ± 0.07 (-99 ± 4) %; IC50 [6, 12]: 0.41 µM
15 | CCCC[N+](CCCC)(CCCC)CCCC [Tetrabutylammonium bromide] |  |  |  |  | Inactive | Inactive | Inactive | Inactive | 0.01 µM | CYP2C19 IC50 [8]: Inactive
16 | CN1[C@@H]2CC[C@H]1C[C@@H](NC(=O)n1c(=O)[nH]c3ccccc31)C2 [Itasetron] | Inactive | Inactive | Inactive | 0.87 ± 0.1 µM |  |  |  |  |  | CYP2C9 IC50 (half-maximal inhibitory concentration) [7]: Inactive; CYP2C19 IC50 (half-maximal inhibitory concentration) [8]: Inactive
17 | CCN(CC)CCOC(=O)C(Cc1cccc2ccccc12)CC1CCCO1 (centres unmarked) [Nafronyl oxalate] |  |  |  |  | Inactive |  | Inactive |  | 2.98 µM | IC50 ([9]; CYP1A2 IC50): 18.2 µM; IC50 ([5]; CYP2C19 IC50): 7.76 µM
18 | CC[n+]1c(-c2ccccc2)c2cc(N)ccc2c2ccc(N)cc21 [Ethidium bromide] |  |  |  |  | Inactive |  |  |  | 0.93 µM | IC50 ([9]; CYP1A2 IC50): 9.62 µM; IC50 ([4]; CYP2C9 IC50): 47.7 µM; IC50 ([5]; CYP2C19 IC50): 13.1 µM
19 | CCOC(=O)c1c(N)sc2c1CCN(Cc1ccccc1)C2 [Tinoridine] |  |  |  | 0.02 ± 0.01 µM | Inactive |  |  |  |  | IC50 [9]: 16.1 ± 1.09 µM; IC50 [4]: 6.91 ± 5.97 µM; IC50 [5]: 0.71 ± 0.38 µM
20 | CN(C/C=C/C#CC(C)(C)C)Cc1cccc2ccccc12 [terbinafine, reference compound] |  |  |  | 0.4 µM | Inactive |  |  |  |  | IC50 [9]: 16.8 µM; IC50 [4]: 15.5 µM; IC50 [5]: 31.9 µM
21 | c1ccc2c(c1)Sc1ccccc1N2CC1CN2CCC1CC2 (centres unmarked) [Mequitazine] | Inactive | Inactive | Inactive |  |  |  |  |  |  | CYP2C9 IC50 (half-maximal inhibitory concentration) [7]: Inactive; CYP2C19 IC50 (half-maximal inhibitory concentration) [8]: Inactive; IC50 [6, 12]: 0.29 µM
22 | CCN(CC)CCOC(=O)C(c1ccccc1)C1CCCCC1 (centres unmarked) [Drofenine hydrochloride] |  |  |  |  | Inactive |  |  |  | 1.19 µM | IC50 ([9]; CYP1A2 IC50): 5.85 µM; IC50 ([4]; CYP2C9 IC50): 26 µM; IC50 ([5]; CYP2C19 IC50): 18.8 µM
